Here are results for 16 compounds from PubChem BioAssay AID256 (DTP/NCI, 2004).

This test has as its system CD2F1 mice, L1210 leukemia ip, survival T/C. As to the kind of experiment: NCI In Vivo Anticancer Drug Screen. Data for tumor model L1210 Leukemia (intraperitoneal) in CD2F1 (CDF1) mice. The conditions noted are these: higher = longer survival. The method in brief:
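Antitumor effect is scored in animals hosting a serially transplanted tumor. Values compare compound-dosed animals against vehicle-only controls as a simple quotient.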

[1] abbreviates: endpoint: mean survival time, dose: 25.0 mg/kg/injection, schedule: Q01DX009 (ip), vehicle: saline with Tween-80.
[2] abbreviates: endpoint: mean survival time, dose: 50.0 mg/kg/injection, schedule: Q01DX009 (ip), vehicle: saline with Tween-80.
[3] abbreviates: endpoint: mean survival time, dose: 100.0 mg/kg/injection, schedule: Q01DX009 (ip), vehicle: saline with Tween-80.
Where [4] appears, read: endpoint: mean survival time, dose: 100.0 mg/kg/injection, schedule: Q04DX003 (ip), vehicle: saline with Tween-80.

Each structure is given as a SMILES string. Values joined by “and” are separate entries in the source; they are usually repeats but may differ in a detail not shown here. Equal entries are not always repeated. Inconclusive results and toxic doses are left out.

Consider `CCC1CC2CN(CCc3c([nH]c4ccccc34)C(C(=O)OC)(c3cc4c(cc3OC)N(C)C3C(O)(C(=O)OC)C(OC(C)=O)C5(CC)C=CCN6CCC43C65)C2)C1` (stereo not given), for which the T/C reads like this: (endpoint: median survival time, dose: 0.06 mg/kg/injection, schedule: Q01DX009 (ip), vehicle: saline) 102 % of control; (endpoint: median survival time, dose: 0.13 mg/kg/injection, schedule: Q01DX009 (ip), vehicle: saline) 103 % of control; (endpoint: median survival time, dose: 0.25 mg/kg/injection, schedule: Q01DX009 (ip), vehicle: saline) 105 % of control; (endpoint: median survival time, dose: 0.5 mg/kg/injection, schedule: Q01DX009 (ip), vehicle: saline) 116 % of control; (endpoint: median survival time, dose: 0.5 mg/kg/injection, schedule: Q01DX009 (ip), vehicle: water) 113 % of control; (endpoint: median survival time, dose: 1.0 mg/kg/injection, schedule: Q01DX009 (ip), vehicle: saline) 120 % of control. Further, the T/C runs as follows: (endpoint: median survival time, dose: 1.0 mg/kg/injection, schedule: Q01DX009 (ip), vehicle: water) 116 % of control; (endpoint: median survival time, dose: 2.0 mg/kg/injection, schedule: Q01DX009 (ip), vehicle: water) 104 % of control.
With `C#CC(=O)OCC#CCOC(=O)C#C`, the T/C was 98 % of control (endpoint: mean survival time, dose: 0.75 mg/kg/injection, schedule: Q01DX009 (ip), vehicle: saline with Tween-80); 100 % of control (endpoint: mean survival time, dose: 1.5 mg/kg/injection, schedule: Q01DX009 (ip), vehicle: saline with Tween-80); 98 % of control (endpoint: mean survival time, dose: 3.0 mg/kg/injection, schedule: Q01DX009 (ip), vehicle: saline with Tween-80); 98 % of control (endpoint: mean survival time, dose: 6.0 mg/kg/injection, schedule: Q01DX009 (ip), vehicle: saline with Tween-80); 90 % of control (endpoint: mean survival time, dose: 12.0 mg/kg/injection, schedule: Q01DX009 (ip), vehicle: saline with Tween-80).
For `CC(=O)/C=C(\C)OC1CCCCC1`, the T/C (endpoint: mean survival time, dose: 100.0 mg/kg/injection, schedule: Q01DX009 (ip), vehicle: saline) is 98 % of control and the T/C (endpoint: mean survival time, dose: 200.0 mg/kg/injection, schedule: Q01DX009 (ip), vehicle: saline) was 93 % of control.
`CCO[Si](OCC)OCC`: the T/C (endpoint: mean survival time, dose: 75.0 mg/kg/injection, schedule: Q01DX001 (ip), vehicle: saline) is 108 % of control.
Regarding `CSC1SCC2C(=O)N(C)C(C(C)C)C(=O)OCC(NC(=O)c3cnc4ccccc4n3)C(=O)NC(C)C(=O)N(C)C1C(=O)N(C)C(C(C)C)C(=O)OCC(NC(=O)c1cnc3ccccc3n1)C(=O)NC(C)C(=O)N2C` (stereo not given), the T/C is, setting by setting: (endpoint: mean survival time, dose: 4.0 micrograms/kg/injection, schedule: Q01DX009 (ip), vehicle: saline) 105 % of control; (endpoint: mean survival time, dose: 8.0 micrograms/kg/injection, schedule: Q01DX009 (ip), vehicle: saline) 107 % of control; (endpoint: mean survival time, dose: 15.0 micrograms/kg/injection, schedule: Q01DX009 (ip), vehicle: saline) 102 % of control; (endpoint: mean survival time, dose: 16.0 micrograms/kg/injection, schedule: Q01DX009 (ip), vehicle: saline) 111 % of control; (endpoint: mean survival time, dose: 30.0 micrograms/kg/injection, schedule: Q01DX009 (ip), vehicle: saline) 118 % of control; (endpoint: mean survival time, dose: 32.0 micrograms/kg/injection, schedule: Q01DX009 (ip), vehicle: saline) 92 % of control. For the same compound, the T/C is, setting by setting: (endpoint: mean survival time, dose: 60.0 micrograms/kg/injection, schedule: Q01DX009 (ip), vehicle: saline) 108 % of control; (endpoint: mean survival time, dose: 120.0 micrograms/kg/injection, schedule: Q01DX009 (ip), vehicle: saline) 86 % of control; (endpoint: mean survival time, dose: 192.0 micrograms/kg/injection, schedule: Q01DX009 (ip), vehicle: saline) 114 % of control; (endpoint: median survival time, dose: 67.0 micrograms/kg/injection, schedule: Q01DX005 (ip), vehicle: saline) 122 % of control; (endpoint: median survival time, dose: 150.0 micrograms/kg/injection, schedule: Q01DX005 (ip), vehicle: saline) 120 % of control and 123 % of control; (endpoint: median survival time, dose: 200.0 micrograms/kg/injection, schedule: Q01DX005 (ip), vehicle: saline) 106 % of control.
With `CC(=O)NC1=C(N2CC2)C(=O)C(NC(C)=O)=C(N2CC2)C1=O`, the T/C is 164 % of control and 181 % of control (endpoint: mean survival time, dose: 0.5 mg/kg/injection, schedule: Q01DX009 (ip), vehicle: saline); 190 % of control (endpoint: mean survival time, dose: 1.0 mg/kg/injection, schedule: Q01DX007 (ip), vehicle: saline); 213 % of control and 230 % of control and 261 % of control (endpoint: mean survival time, dose: 1.0 mg/kg/injection, schedule: Q01DX009 (ip), vehicle: saline); 162 % of control (endpoint: mean survival time, dose: 1.0 mg/kg/injection, schedule: Q03DX003 (ip), vehicle: saline); 105 % of control (endpoint: mean survival time, dose: 2.0 mg/kg/injection, schedule: Q01DX007 (ip), vehicle: saline); 253 % of control and 100 % of control and 101 % of control (endpoint: mean survival time, dose: 2.0 mg/kg/injection, schedule: Q01DX009 (ip), vehicle: saline). The T/C was 198 % of control (endpoint: mean survival time, dose: 2.0 mg/kg/injection, schedule: Q03DX003 (ip), vehicle: saline); 191 % of control (endpoint: mean survival time, dose: 2.0 mg/kg/injection, schedule: Q04DX003 (ip), vehicle: saline); 107 % of control (endpoint: mean survival time, dose: 4.0 mg/kg/injection, schedule: Q03DX003 (ip), vehicle: saline); 217 % of control (endpoint: mean survival time, dose: 4.0 mg/kg/injection, schedule: Q04DX003 (ip), vehicle: saline).
On to `CCCCC(=O)c1cc(O)ccc1O`, for which the T/C is 107 % of control (endpoint: mean survival time, dose: 100.0 mg/kg/injection, schedule: Q01DX001 (ip), vehicle: saline); 98 % of control (endpoint: mean survival time, dose: 200.0 mg/kg/injection, schedule: Q01DX001 (ip), vehicle: saline); 92 % of control (endpoint: mean survival time, dose: 400.0 mg/kg/injection, schedule: Q01DX001 (ip), vehicle: saline).
Turning to `COC(=O)c1cccc2c1/C(=N/NC(N)=S)c1ccccc1-2`, the T/C (endpoint: mean survival time, dose: 50.0 mg/kg/injection, schedule: Q01DX001 (ip), vehicle: carboxymethylcellulose (CMC)) is 102 % of control; the T/C (endpoint: mean survival time, dose: 100.0 mg/kg/injection, schedule: Q01DX001 (ip), vehicle: carboxymethylcellulose (CMC)) was 98 % of control; the T/C (endpoint: mean survival time, dose: 200.0 mg/kg/injection, schedule: Q01DX001 (ip), vehicle: carboxymethylcellulose (CMC)) is 102 % of control; the T/C (endpoint: mean survival time, dose: 400.0 mg/kg/injection, schedule: Q01DX001 (ip), vehicle: carboxymethylcellulose (CMC)) is 102 % of control.
`O=C(O)/C(Cl)=C(/Cl)C(Cl)=C(Cl)Cl`: the T/C is, setting by setting: under setting [1], 96 % of control; (endpoint: mean survival time, dose: 25.0 mg/kg/injection, schedule: Q04DX003 (ip), vehicle: saline with Tween-80) 100 % of control; under setting [2], 95 % of control; (endpoint: mean survival time, dose: 50.0 mg/kg/injection, schedule: Q04DX003 (ip), vehicle: saline with Tween-80) 98 % of control; under setting [3], 93 % of control; under setting [4], 91 % of control.
For the compound `CCCCCCCCCCC(=O)N1CCOCC1`, the T/C runs as follows: under setting [2], 87 % of control; under setting [3], 96 % of control.
On to `Nc1nc2ncc(CN(N=O)c3ccc(C(=O)NC(CCC(=O)O)C(=O)O)cc3)nc2c(=O)[nH]1` (stereo not given), for which the T/C was 102 % of control (endpoint: mean survival time, dose: 10.0 mg/kg/injection, schedule: Q01DX009 (ip), vehicle: water); 101 % of control (endpoint: mean survival time, dose: 20.0 mg/kg/injection, schedule: Q01DX009 (ip), vehicle: water); 98 % of control (endpoint: mean survival time, dose: 40.0 mg/kg/injection, schedule: Q01DX009 (ip), vehicle: water); 94 % of control (endpoint: mean survival time, dose: 80.0 mg/kg/injection, schedule: Q01DX009 (ip), vehicle: distilled water + Tween-80); 90 % of control (endpoint: mean survival time, dose: 160.0 mg/kg/injection, schedule: Q01DX009 (ip), vehicle: distilled water + Tween-80).
Take `CN/N=C/c1ccc(O)c(OC)c1`: the T/C was 91 % of control under setting [3] and 87 % of control (endpoint: mean survival time, dose: 200.0 mg/kg/injection, schedule: Q01DX009 (ip), vehicle: saline with Tween-80).
Take `O=C(C=C(C(F)(F)F)C(F)(F)F)c1ccccc1Cl`: the T/C runs as follows: (endpoint: mean survival time, dose: 12.5 mg/kg/injection, schedule: Q01DX009 (ip), vehicle: saline with Tween-80) 103 % of control; under setting [1], 102 % of control.
`Nc1n[nH]c(=S)n1-c1ccc(Cl)cc1`: the T/C is 97 % of control (endpoint: mean survival time, dose: 100.0 mg/kg/injection, schedule: Q01DX009 (ip), vehicle: acetone); 101 % of control (endpoint: mean survival time, dose: 200.0 mg/kg/injection, schedule: Q01DX009 (ip), vehicle: acetone); 106 % of control (endpoint: mean survival time, dose: 400.0 mg/kg/injection, schedule: Q01DX009 (ip), vehicle: acetone).
`CC(=O)O[C@@H]1[C@@H](O)[C@H]2O[C@@H]3C=C(C)CC[C@]3(CO)[C@]1(C)[C@@]21CO1`: the T/C was 103 % of control (endpoint: mean survival time, dose: 1.25 mg/kg/injection, schedule: Q01DX009 (ip), vehicle: saline with Tween-80); 115 % of control (endpoint: mean survival time, dose: 2.5 mg/kg/injection, schedule: Q01DX009 (ip), vehicle: saline with Tween-80); 115 % of control (endpoint: mean survival time, dose: 5.0 mg/kg/injection, schedule: Q01DX009 (ip), vehicle: saline with Tween-80).
For `CC(C)=CC(C)OC(=O)N(C)C` (stereo not given), the T/C was 97 % of control under setting [4] and 94 % of control (endpoint: mean survival time, dose: 200.0 mg/kg/injection, schedule: Q04DX003 (ip), vehicle: saline with Tween-80).
